Laboratory results reported in patent US8673882B2, “Inhibitors of autotaxin” (University of Tennessee Research Foundation, priority 2011, dated 2014).
“Also recorded” adds a separate entry of the source.

How the values were obtained:
[1] = target: recombinant, purified human ATX (Homo sapiens, UniProt Q13822); assay: Mechanism of autotaxin inhibition (IC50, Ki, Ki′; FS-3 hydrolysis); assay type: biochemical; settings: for IC50: 8.3 nM ATX, 1 μM FS-3, 15 μM BSA; for ATX Mechanism of inhibition: FS-3 0.3 μM to 20 μM, inhibitor 0, 0.5× and 2× IC50
Procedure: The mechanism of inhibition of ATX was determined using recombinant, purified human ATX and FS-3. Final ATX and FS-3 concentrations were 8.3 nM and 1 μM, respectively and the assay buffer with 15 μM fatty acid tree BSA. To calculate IC50, full dose responses were determined for the test compounds. […] Simultaneous non-linear regression, using, WinNonLin® 6.1 (Pharsight, Mountain View, Calif.) was used to assign the mechanism of inhibition. Ki and Ki′ values (the affinity for free enzyme and enzyme substrate complex, respectively) were determined by calculating the lowest averaged percent residuals for each mechanism derived from curve fitting using the Michealis-Menten equations for competitive, uncompetitive, mixed-mode, and non-competitive inhibition.

NPP6 = target: T1, NPP6 (Homo sapiens, UniProt Q6UWR7); assay: NPP-6 inhibition assay (pNPPC substrate); assay type: biochemical; settings: 10 μM compound; 8.3 nM enzyme; 10 μM pNPPC; read-out: NPP6 Activity, % control (10 μM)
T1 sequence (Q6UWR7 23-419): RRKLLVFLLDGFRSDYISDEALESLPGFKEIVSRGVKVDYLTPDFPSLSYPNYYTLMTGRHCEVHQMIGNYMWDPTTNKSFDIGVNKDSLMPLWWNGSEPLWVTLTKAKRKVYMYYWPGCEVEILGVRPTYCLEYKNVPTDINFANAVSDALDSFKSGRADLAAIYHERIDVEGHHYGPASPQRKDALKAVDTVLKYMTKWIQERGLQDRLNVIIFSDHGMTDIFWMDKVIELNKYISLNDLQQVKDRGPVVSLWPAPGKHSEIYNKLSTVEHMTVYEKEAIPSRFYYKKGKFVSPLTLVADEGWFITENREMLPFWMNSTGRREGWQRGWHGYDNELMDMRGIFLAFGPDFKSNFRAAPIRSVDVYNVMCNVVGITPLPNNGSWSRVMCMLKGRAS
Procedure: NPP6 and NPP7 are the only NPP isoforms other than ATX that are known to utilize lysophospholipid phosphodiesters as substrates. Therefore, the specificity of the chemical compounds of the invention regarding ATX was addressed by determining the activity of NPP6 and NPP7 in the presence and absence of these analogs.
Inhibition of NPP6 and NPP7 was evaluated using recombinant, purified proteins, the synthetic substrate para-nitrophenylphosphocholine (pNPPC) and a Synergy II plate reader (BioTek, Winooski, Vt.). The final concentration of each enzyme was 8.3 nM and pNPPC was 10 μM. All analogs were tested at single 10 μM concentrations. Absorbance of liberated para-nitrophenol at 405 nm was determined up to 1 hour (where responses were linear) and was normalized to vehicle control.

[2] = tested on: MM1 hepatocarcinoma cells; assay: Invasion of mesothelial cell monolayer by MM1 cells; assay type: cell-based, rat; settings: with LPC; FIG. 12 panel E
From the text: (§1) Cancer metastasis is a complex process that cannon be accurately modeled in vitro. Models that utilize cellular monolayers for the invasion of carcinoma cell come the closest to the situation in vivo. Two different cell monolayers, mouse mesothelium and human vascular endothelium were used to examine the role of ATX in the invasion of MM1 hepatocarcinoma cells and the reduction of such invasion by the chemical compounds of the present application. The mesothelial monolayer is an accepted model for invasion of body cavities lined by serous cells whereas, the HUVEC monolayer is considered to be an in vitro model of hematogenous invasion of carcinomas.
(§2) Highly invasive MM1 cells originally isolated from the AH130 rat hepatoma cells were utilized in these studies. The cells were grown in suspension in DMEM supplemented with 10% fetal bovine serum, 2 mM glutamine, 100 units/ml penicillin and 10 μg/ml streptoinycin. Mesothelial cells were isolated and cultured from C57BL/6 mice. Human umbilical cord vascular endothelial cells (HUVEC) were obtained from VEC Technologies Inc., (Rensselaer, N.Y., USA) and were grown in MCDB-131 complete medium containing 10% fetal bovine serum. 90 μg/ml heparin, 10 ng/ml EGF, 1 μg/ml hydrocortisone, 0.2 mg/ml EndoGrowth supplement, 100 units/ml penicillin G, 100 μg/ml streptomycin and 25 μg/ml amphotericin B (all from VEC Technologies). Tumor cell invasion was performed by seeding 1.3×10^5 HUVECs (passage 7) into each well of a 12-well plate pre-coated with 0.2% gelatin (Sigma) and cultured for 2 days to form a confluent monolayer. Mesothelial cells harvested from two-three mice were initially plated in 6-well plates and grown to confluency in DMEM medium supplemented with 10% fetal bovine serum in the presence of 100 units/ml penicillin G and 10 μg/ml streptomycin. When confluent, the mesothelial cells were split into three equal aliquots (˜5×10^4 cells each) and plated to three wells of a 12-well plate and grown to confluence.
Invasion of MM1 cells of Example 53 was determined and the effect of compounds of the present application in reducing the invasion was determined. For all invasion assays, MM1 cells were pre-stained with 2 μg/ml calcein AM (Invitrogen, USA) for 2 h, rinsed once, and seeded at a density of 5×10^4 cells/well over the monolayers. […] The number of tumor cells that penetrated the monolayer was photographed under a NIKON TiU inverted microscope using phase-contrast and fluorescence illumination in a minimum of five non-overlapping fields at 100× magnification. The fluorescent images were overlayed on top of the phase contrast images using the Elements BR software (version 3.1x) and the invaded MM1 cells showing the characteristic flattened morphology in the plane of focus underneath the monolayer were counted. […]

[3] = tested on: MM1 hepatocarcinoma cells; assay: Invasion of HUVEC monolayer by MM1 cells; assay type: cell-based, rat; settings: for LPC-dependent invasion of the HUVEC monolayer: 1.5 μM LPC, FIG. 14; for basal rate of invasion: compounds alone, without LPC
From the text: as §1, §2
Invasion of MM1 cells of Example 53 was determined and the effect of compounds of the present application in reducing the invasion was determined. For all invasion assays, MM1 cells were pre-stained with 2 μg/ml calcein AM (Invitrogen, USA) for 2 h, rinsed once, and seeded at a density of 5×10^4 cells/well over the monolayers. Tumor cells were left to invade the HUVEC monolayer for 24 h in MCDB-131 complete media containing 1% serum with or without addition of 1.5 μM LPC. MM1 cells were plated on the mesothelial monolayers in 2% fetal bovine serum-supplemented DMEM medium in the presence of 100 units/ml penicillin G and 10 μg/ml streptomycin with or without 1.5 μM LPC (5 μM for the mesothelium cells) and invasion was allowed to proceed for 20 h. The day after MM1 cell seeding, non-invaded tumor cells were removed by repeated five rinses of the HUVEC monolayer (three rinses for the mesothelial monolayers) with PBS (containing Ca^2+ and Mg^2+) followed by fixation with 10% buffered formalin. The number of tumor cells that penetrated the monolayer was photographed under a NIKON TiU inverted microscope using phase-contrast and fluorescence illumination in a minimum of five non-overlapping fields at 100× magnification. The fluorescent images were overlayed on top of the phase contrast images using the Elements BR software (version 3.1x) and the invaded MM1 cells showing the characteristic flattened morphology in the plane of focus underneath the monolayer were counted. […]

recombinant human ATX = recombinant human ATX (Homo sapiens, UniProt Q13822); assay: Autotaxin inhibition screening assay (FS-3 FRET substrate); assay type: biochemical; settings: FS3 hydrolysis
[4] = affinity for enzyme substrate complex

Row | SMILES | IC50 [1] | ATX Mechanism of inhibition [1] | Ki [1, 4] | Ki ([1]; affinity for free enzyme) | remaining activity at 10 µM (NPP6) | MM1 cell invasion of the mesothelial monolayer [2] | LPC-dependent invasion of the HUVEC monolayer [3] | basal rate of invasion [3] | ATX inhibition in dose-response curves (FIG. 10) (recombinant human ATX)
1 | CCCCCCCCCCCCCCCc1ccc(CP(=O)(O)O)cc1 [Compound 22, 4-Pentadecylbenzylphosphonic acid] | 170 nM | Mixed | 280 nM | 270 nM | 96.5% | inhibited; also recorded: inhibition | dose-dependently inhibited; also recorded: blockage | did not reduce | dose-dependently and completely inhibited ATX
2 | CCCCCCCCCCC/C=C/c1ccc2cc(CP(=O)(O)O)ccc2c1 [Compound 30b, (E)-6-Tridec-1-enyl-naphthalen-2-yl-methylphosphonic acid] | 1400 nM | MIXED | 1010 nM | 1500 nM | 104% | inhibited | dose-dependently inhibited | did not reduce | dose-dependently and completely inhibited ATX
